Measured values taken from ChEMBL document CHEMBL4665809, “Synthesis and biofilm inhibition studies of 2-(2-amino-6-arylpyrimidin-4-yl)quinazolin-4(3H)-ones” (Bioorg Med Chem Lett, 2020).
pIC50: −log10 of the molar value.

Key:
Staphylococcus aureus [1] = experiment: Inhibition of biofilm formation in methicillin-resistant Staphylococcus aureus ATCC 43300 at 100 uM incubated for 24 hrs by crystal violet staining based microtiter plate method; type: functional
Staphylococcus aureus [2] = experiment: Inhibition of biofilm formation in methicillin-resistant Staphylococcus aureus ATCC 43300 incubated for 24 hrs by crystal violet staining based microtiter plate method; type: functional, organism-based; settings: ATCC 43300, 24 h
Acinetobacter baumannii = experiment: Inhibition of biofilm formation in Acinetobacter baumannii at 100 uM incubated for 24 hrs by crystal violet staining based microtiter plate method; type: functional
CCD-18Co [3] = experiment: Cytotoxicity against human CCD-18Co cells assessed as reduction in cell viability at 12.5 uM measured after 1 days by MTT assay relative to control; type: cell-based; settings: 24 h, time 1 day
CCD-18Co [4] = experiment: Cytotoxicity against human CCD-18Co cells assessed as reduction in cell viability at 50 uM measured after 1 days by MTT assay relative to control; type: cell-based; settings: 24 h, time 1 day
CCD-18Co [5] = experiment: Cytotoxicity against human CCD-18Co cells assessed as reduction in cell viability at 25 uM measured after 1 days by MTT assay relative to control; type: cell-based; settings: 24 h, time 1 day

SMILES | inhibition at 100 µM (Staphylococcus aureus [1]) [%] | pIC50 (Staphylococcus aureus [2]) | inhibition at 100 µM (Acinetobacter baumannii) [%] | Activity (CCD-18Co [3]) | Activity (CCD-18Co [4]) | Activity (CCD-18Co [5])
CSc1ccc(-c2cc(-c3nc4ccccc4c(=O)[nH]3)nc(N)n2)cc1 | > 50 | 4.65 | < 25 | – | – | –
Nc1nc(-c2nc3ccccc3c(=O)[nH]2)cc(-c2cccc3ccccc23)n1 | – | – | < 25 | – | – | –
Nc1nc(-c2cccc(OCc3ccccc3)c2)cc(-c2nc3ccccc3c(=O)[nH]2)n1 | – | – | < 25 | – | – | –
COc1cccc(-c2cc(-c3nc4ccccc4c(=O)[nH]3)nc(N)n2)c1 | > 50 | 4.07 | < 25 | – | – | –
Nc1nc(-c2cccc(Br)c2)cc(-c2nc3ccccc3c(=O)[nH]2)n1 | > 50 | 4.68 | < 25 | Toxic | Toxic | –
Nc1nc(-c2ccccc2)cc(-c2nc3ccccc3c(=O)[nH]2)n1 | > 50 | 4.46 | < 25 | – | – | –
COc1ccc(-c2cc(-c3nc4ccccc4c(=O)[nH]3)nc(N)n2)c(OC)c1 | > 50 | 4.42 | < 25 | – | – | –
Nc1nc(-c2nc3ccccc3c(=O)[nH]2)cc(-c2ccc(Cl)cc2Cl)n1 | > 50 | 4.37 | < 25 | – | – | –
Nc1nc(-c2nc3ccccc3c(=O)[nH]2)cc(-c2ccco2)n1 | > 50 | 4.24 | < 25 | – | – | –
COc1cc(OC)cc(-c2cc(-c3nc4ccccc4c(=O)[nH]3)nc(N)n2)c1 | > 50 | 4.30 | < 25 | – | – | –
Nc1nc(-c2ccc(C(F)(F)F)cc2)cc(-c2nc3ccccc3c(=O)[nH]2)n1 | > 50 | 4.06 | < 25 | – | – | –
COc1cc(OC)c(-c2cc(-c3nc4ccccc4c(=O)[nH]3)nc(N)n2)c(OC)c1 | > 50 | 4.67 | < 25 | Non-Toxic | Non-Toxic | Non-Toxic
COc1ccc(-c2cc(-c3nc4ccccc4c(=O)[nH]3)nc(N)n2)cc1OC | – | – | < 25 | – | – | –
Nc1nc(-c2nc3ccccc3c(=O)[nH]2)cc(-c2cccs2)n1 | < 50 | 4.15 | < 25 | – | – | –
Nc1nc(-c2ccc(F)cc2)cc(-c2nc3ccccc3c(=O)[nH]2)n1 | < 50 | – | < 25 | – | – | –
Nc1nc(-c2nc3ccccc3c(=O)[nH]2)cc(-c2ccccc2Cl)n1 | > 50 | 4.25 | < 25 | – | – | –
Nc1nc(-c2ccncc2)cc(-c2nc3ccccc3c(=O)[nH]2)n1 | < 50 | – | < 25 | – | – | –
COc1cc(-c2cc(-c3nc4ccccc4c(=O)[nH]3)nc(N)n2)cc(OC)c1OC | – | – | < 25 | – | – | –
Nc1nc(-c2ccc(Cl)cc2)cc(-c2nc3ccccc3c(=O)[nH]2)n1 | < 50 | – | < 25 | – | – | –
Nc1nc(-c2ccc(OCc3ccccc3)cc2)cc(-c2nc3ccccc3c(=O)[nH]2)n1 | > 50 | 4.43 | < 25 | – | – | –
Nc1nc(-c2ccc(Br)cc2)cc(-c2nc3ccccc3c(=O)[nH]2)n1 | > 50 | 4.33 | < 25 | – | – | –
Cc1ccc(-c2cc(-c3nc4ccccc4c(=O)[nH]3)nc(N)n2)cc1 | – | – | < 25 | – | – | –
